Assay results: patent US9085555B2, “Complement pathway modulators and uses thereof” (priority 2011, dated 2015)

Target: Factor D (Homo sapiens (Human), UniProt P00746)
Test: biochemical
Format: biochemical
Details: not given

Factor D, sequence (P00746 26-253): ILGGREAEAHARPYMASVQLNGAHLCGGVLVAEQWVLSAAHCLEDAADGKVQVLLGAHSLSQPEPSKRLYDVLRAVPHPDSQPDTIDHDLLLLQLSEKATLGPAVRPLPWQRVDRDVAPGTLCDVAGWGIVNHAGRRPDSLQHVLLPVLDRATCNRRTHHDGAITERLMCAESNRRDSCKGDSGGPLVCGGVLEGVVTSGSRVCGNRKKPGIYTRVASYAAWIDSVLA

SMILES	IC50 [µM]
NC(=O)n1cc(CC(=O)N2C[C@@H](N)C[C@H]2C(=O)NCc2cccc(Cl)c2F)c2ccccc21 [Example 468, 3-{2-[(2S,4S)-4-Amino-2-(3-chloro-2-fluoro-benzylcarbamoyl)-pyrrolidin-1-yl]-2-oxo-ethyl}-indole-1-carboxylic acid amide]	0.35

Same assay, conditions: read-out: IC50

SMILES	IC50 [µM]
COC[C@@]12C[C@@H](C(=O)NCc3cccc(Cl)c3F)N(C(=O)Cc3cn(C(N)=O)c4ccccc34)[C@@H]1C2 [Example 454, 3-{2-[(1R,3S,5S)-3-(3-Chloro-2-fluoro-benzylcarbamoyl)-5-methoxymethyl-2-aza-bicyclo[3.1.0]hex-2-yl]-2-oxo-ethyl}-indole-1-carboxylic acid amide]	0.103
NC(=O)n1cc(CC(=O)N2[C@@H]3C[C@@H]3C[C@H]2C(=O)Nc2cccc(OC(F)(F)F)c2)c2cc(OCCO)ccc21 [Example 455, 5-(2-Hydroxy-ethoxy)-3-{2-oxo-2-[(1R,3S,5R)-3-(3-trifluoromethoxy-phenylcarbamoyl)-2-aza-bicyclo[3.1.0]hex-2-yl]-ethyl}-indole-1-carboxylic acid amide]	0.767
NC(=O)n1cc(CC(=O)N2[C@@H]3C[C@@H]3C[C@H]2C(=O)NCc2ccc(Cl)s2)c2ccccc21 [Example 456, 3-(2-{(1R,3S,5R)-3-[(5-Chloro-thiophen-2-ylmethyl)-carbamoyl]-2-aza-bicyclo[3.1.0]hex-2-yl}-2-oxo-ethyl)-indole-1-carboxylic acid amide]	0.085
NC(=O)n1cc(CC(=O)N2[C@@H]3C[C@@H]3C[C@H]2C(=O)N[C@H](CCO)c2cccc(Cl)c2F)c2ccccc21 [Example 457, 3-(2-{(1R,3S,5R)-3-[(R)-1-(3-Chloro-2-fluoro-phenyl)-3-hydroxy-propylcarbamoyl]-2-azabicyclo[3.1.0]hex-2-yl}-2-oxo-ethyl)-indole-1-carboxylic acid amide]	0.107
CN(C)C[C@@H](NC(=O)[C@@H]1C[C@H]2C[C@H]2N1C(=O)Cc1cn(C(N)=O)c2ccccc12)c1cccc(Cl)c1F [Example 458, 3-(2-{(1R,3S,5R)-3-[(S)-1-(3-Chloro-2-fluoro-phenyl)-2-dimethylamino-ethylcarbamoyl]-2-aza-bicyclo[3.1.0]hex-2-yl}-2-oxo-ethyl)-indole-1-carboxylic acid amide]	0.169
C[C@@]1(F)C[C@@H](C(=O)NCc2cccc(Cl)c2F)N(C(=O)Cc2cn(C(N)=O)c3ccc(OCCO)cc23)C1 [Example 459, 3-{2-[(2S,4R)-2-(3-Chloro-2-fluoro-benzylcarbamoyl)-4-fluoro-4-methyl-pyrrolidin-1-yl]-2-oxo-ethyl)-5-(2-hydroxy-ethoxy)-indole-1-carboxylic acid amide]	0.211
NC(=O)n1cc(CC(=O)N2C[C@H](F)C[C@H]2C(=O)NCc2cccc(Cl)c2F)c2cc(F)ccc21 [Example 460, 3-{2-[(2S,4R)-2-(3-Chloro-2-fluoro-benzylcarbamoyl)-4-fluoro-pyrrolidin-1-yl]-2-oxo-ethyl}-5-fluoro-indole-1-carboxylic acid amide]	0.02
NC(=O)n1cc(CC(=O)N2CCS[C@H]2C(=O)NCc2cccc(Cl)c2F)c2cc(OCCO)ccc21 [Example 462, 3-{2-[(S)-2-(3-Chloro-2-fluoro-benzylcarbamoyl)-thiazolidin-3-yl]-2-oxo-ethyl}-5-(2-hydroxy-ethoxy)-indole-1-carboxylic acid amide]	0.075
NC(=O)n1cc(CC(=O)N2C[C@H]3C[C@H]3[C@H]2C(=O)N[C@H](CO)c2cccc(Cl)c2F)c2ccccc21 [Example 463, 3-(2-{(1R,2S,5S)-2-[(S)-1-(3-Chloro-2-fluoro-phenyl)-2-hydroxy-ethylcarbamoyl]-3-azabicyclo[3.1.0]hex-3-yl}-2-oxo-ethyl)-indole-1-carboxylic acid amide]	3.11
COC[C@@H](NC(=O)[C@@H]1C[C@H]2C[C@H]2N1C(=O)Cc1cn(C(N)=O)c2ccccc12)c1cccc(Cl)c1F [Example 464, 3-(2-{(1R,3S,5R)-3-[(S)-1-(3-Chloro-2-fluoro-phenyl)-2-methoxy-ethylcarbamoyl]-2-aza-bicyclo[3.1.0]hex-2-yl}-2-oxo-ethyl)-indole-1-carboxylic acid amide]	0.254
NC(=O)n1cc(CC(=O)N2C[C@H](F)[C@@H](N)[C@H]2C(=O)NCc2cccc(Cl)c2F)c2ccccc21 [Example 466, 3-{2-[(2S,3S,4S)-3-Amino-2-(3-chloro-2-fluoro-benzylcarbamoyl)-4-fluoro-pyrrolidin-1-yl]-2-oxo-ethyl}-indole-1-carboxylic acid amide]	0.043
NC(=O)n1cc(CC(=O)N2[C@H](C(=O)NCc3cccc(Cl)c3F)C[C@@]3(CO)C[C@@H]23)c2ccccc21 [Example 467, 3-{2-[(1R,3S,5S)-3-(3-Chloro-2-fluoro-benzylcarbamoyl)-5-hydroxymethyl-2-aza-bicyclo[3.1.0]hex-2-yl]-2-oxo-ethyl}-indole-1-carboxylic acid amide]	0.047
NC(=O)n1cc(CC(=O)N2NCCC2C(=O)NCc2cccc(Cl)c2)c2ccccc21 (stereo not shown) [Example 469, 3-{2-[5-(3-Chloro-benzylcarbamoyl)-pyrazolidin-1-yl]-2-oxo-ethyl}-indole-1-carboxylic acid amide]	3.35
NC[C@@]1(F)C[C@@H](C(=O)NCc2cccc(Cl)c2F)N(C(=O)Cc2cn(C(N)=O)c3ccccc23)C1 [Example 470, 3-{2-[(2S,4S)-4-Aminomethyl-2-(3-chloro-2-fluoro-benzylcarbamoyl)-4-fluoro-pyrrolidin-1-yl]-2-oxo-ethyl}-indole-1-carboxylic acid amide]	0.25
NC[C@@]1(F)C[C@@H](C(=O)NCc2c(F)ccc(Cl)c2F)N(C(=O)Cc2cn(C(N)=O)c3ccccc23)C1 [Example 471, 3-{2-[(2S,4S)-4-Aminomethyl-2-(3-chloro-2,6-difluoro-benzylcarbamoyl)-4-fluoro-pyrrolidin-1-yl]-2-oxo-ethyl}-indole-1-carboxylic acid amide]	0.089
CN(C)CCOc1ccc2c(c1)c(CC(=O)N1[C@@H]3C[C@@H]3C[C@H]1C(=O)NCc1cccc(Cl)c1F)cn2C(N)=O [Example 472, 3-{2-[(1R,3S,5R)-3-(3-Chloro-2-fluoro-benzylcarbamoyl)-2-aza-bicyclo[3.1.0]hex-2-yl]-2-oxo-ethyl}-5-(2-dimethylamino-ethoxy)-indole-1-carboxylic acid amide]	0.255
NC(=O)n1cc(CC(=O)N2[C@@H]3C[C@@H]3C[C@H]2C(=O)NCc2cccc(Cl)c2F)c2ccc(CC(=O)O)cc21 [Example 473, (1-Carbamoyl-3-{2-[(1R,3S,5R)-3-(3-chloro-2-fluoro-benzylcarbamoyl)-2-aza-bicyclo[3.1.0]hex-2-yl]-2-oxo-ethyl}-1H-indol-6-yl)-acetic acid]	0.463
NC(=O)n1cc(CC(=O)N2[C@@H]3C[C@@H]3C[C@H]2C(=O)NCc2cccc(Cl)c2F)c2ccc(CCO)cc21 [Example 474, 3-{2-[(1R,3S,5R)-3-(3-Chloro-2-fluoro-benzylcarbamoyl)-2-aza-bicyclo[3.1.0]hex-2-yl]-2-oxo-ethyl}-6-(2-hydroxy-ethyl)-indole-1-carboxylic acid amide]	0.095
NC(=O)c1cn(CC(=O)N2[C@@H]3C[C@@H]3C[C@H]2C(=O)NCc2cccc(Cl)c2F)c2ccccc12 [Example 475, 1-{2-[(1R,3S,5R)-3-(3-Chloro-2-fluoro-benzylcarbamoyl)-2-aza-bicyclo[3.1.0]hex-2-yl]-2-oxo-ethyl}-1H-indole-3-carboxylic acid amide]	0.35
NC(=O)c1cn(CC(=O)N2C[C@H](F)C[C@H]2C(=O)NCc2cccc(Cl)c2F)c2ccccc12 [Example 476, 1-{2-[(2S,4R)-2-(3-Chloro-2-fluoro-benzylcarbamoyl)-4-fluoro-pyrrolidin-1-yl]-2-oxo-ethyl}-1H-indole-3-carboxylic acid amide]	0.033
COc1cccc2c(C(N)=O)cn(CC(=O)N3C[C@H](F)C[C@H]3C(=O)NCc3cccc(Cl)c3F)c12 [Example 477, 1-{2-[(2S,4R)-2-(3-Chloro-2-fluoro-benzylcarbamoyl)-4-fluoro-pyrrolidin-1-yl]-2-oxo-ethyl}-7-methoxy-1H-indole-3-carboxylic acid amide]	0.628
CC(=O)c1cn(CC(=O)N2CCCC[C@H]2C(=O)NCc2cccc(Cl)c2F)c2ccccc12 [Example 478, (S)-1-[2-(3-Acetyl-indol-1-yl)-acetyl]-piperidine-2-carboxylic acid 3-chloro-2-fluoro-benzylamide]	0.258
NC(=O)c1cn(CC(=O)N2C[C@H](F)C[C@H]2C(=O)NCc2cccc(Cl)c2F)c2cc(Br)c(F)cc12 [Example 479, 6-Bromo-1-{2-[(2S,4R)-2-(3-chloro-2-fluoro-benzylcarbamoyl)-4-fluoro-pyrrolidin-1-yl]-2-oxo-ethyl}-5-fluoro-1H-indole-3-carboxylic acid amide]	0.089
NC(=O)c1cn(CC(=O)N2C[C@H](F)C[C@H]2C(=O)NCc2cccc(Br)c2F)c2ccccc12 [Example 481, 1-{2-[(2S,4R)-2-(3-Bromo-2-fluoro-benzylcarbamoyl)-4-fluoro-pyrrolidin-1-yl]-2-oxo-ethyl}-1H-indole-3-carboxylic acid amide]	0.022
CC(=O)c1cn(CC(=O)N2C[C@](C)(F)C[C@H]2C(=O)NCc2cccc(Cl)c2F)c2cnccc12 [Example 482, (2S,4R)-1-[2-(3-Acetyl-pyrrolo[2,3-c]pyridin-1-yl)-acetyl]-4-fluoro-4-methyl-pyrrolidine-2-carboxylic acid 3-chloro-2-fluoro-benzylamide]	0.188
CC(=O)c1cn(CC(=O)N2[C@@H]3C[C@@H]3C[C@H]2C(=O)NCc2cccc(Cl)c2F)c2ncccc12 [Example 483, (1R,3S,5R)-2-[2-(3-Acetyl-pyrrolo[2,3-b]pyridin-1-yl)-acetyl]-2-aza-bicyclo[3.1.0]hexane-3-carboxylic acid 3-chloro-2-fluoro-benzylamide]	0.06
CC(=O)c1cn(CC(=O)N2[C@@H]3C[C@@H]3C[C@H]2C(=O)NCc2ccc(Cl)s2)c2ncccc12 [Example 484, (1R,3S,5R)-2-[2-(3-Acetyl-pyrrolo[2,3-b]pyridin-1-yl)-acetyl]-2-aza-bicyclo[3.1.0]hexane-3-carboxylic acid (5-chloro-thiophen-2-ylmethyl)-amide]	0.358
